From article PMC8157947, “Peptidic boronic acids are potent cell-permeable inhibitors of the malaria parasite egress serine protease SUB1” (Proceedings of the National Academy of Sciences of the …, 2021)

Legend:
P. falciparum schizonts = test: Ring formation after pretreatment of schizonts and washout; format: cell-based, Plasmodium falciparum; conditions: pretreated schizonts washed, fresh RBCs, assessed at 24 h; 3j 10 μM, C2 1 μM
Description: Short-term egress, invasion, and washout assays were performed essentially as described previously ([27], [28], [42]). Briefly, highly synchronous mature Percoll-enriched schizonts with or without added fresh RBCs (∼5% parasitaemia final) were incubated with compounds under test or vehicle only (DMSO, 1% vol/vol). For washout assays, schizonts were treated with C2 or various concentrations of inhibitor 3j for 1 to 4 h, then washed extensively (at least four times) prior to addition to fresh RBCs where required. After incubation at 37 °C for just 1 to 4 h (or overnight for invasion assays) to allow schizont rupture, cells were pelleted. Clarified culture supernatants were assessed for extent of hemoglobin release (a measure of schizont rupture) by absorption spectroscopy at 415 nm as described previously ([28]) or analyzed by Western blot using antibodies against SERA5 ([7], [11]). To quantify generation of new rings, samples of the cultures were fixed with 4% paraformaldehyde/0.02% glutaraldehyde and stained with SYBR Green I (Life Technologies) and then analyzed by flow cytometry on a BD FACSVerse using BD FACSuite software. Data were analyzed using FlowJo software. All cultures were also routinely analyzed by microscopic examination of Giemsa-stained thin films to visually assess parasite morphology.

elastase = test: Elastase inhibition assay (MeOSuc-AAPV-AMC cleavage); format: biochemical; conditions: porcine elastase; estimated
Description: Assays for assessing inhibition of elastase a c t i vit y (from porcine pancreas; Sigm a-Aldrich E7885) were based on c leavage of the fluorogenic peptide substrate MeOSuc-AAPV-AMC (Sigm a- Aldrich […]
324740). Elastase was dissolved in 1 m M HCl, 2 m M CaCl2 to produce a stock solutio n of 1 mg/ml […]
(38.6 µM). F or inhibition as says , 100 µl of 1 µg/m l (38.6 nM) elastase in 25 m M T ris -HCl pH 8.2, […]
15 m M CaC l2 was d ispense d into we lls of whit e 9 6- we ll m icrowe ll p lates (Nunc), and pre- incubated […]
for 5 m in wi th com pound 3j at concentr ations ranging from 0-20 µM before addition of substrate […]
(10 µM f inal). F luorescence increase was m onitored continuousl y with tim e as above. PMSF was used as a positive inh ib itor control as above. All m easurem ents were perform ed in duplicate.

[1] = system: P. falciparum schizonts expressing EXP2-mNeonGreen; test: Time-lapse video microscopy of egress after compound washout; format: cell-based, Plasmodium falciparum; conditions: 10 μM, 30 min monitoring after washout
α-chymotrypsin = target: T1, α-chymotrypsin (Bos taurus, UniProt P00766); test: α-Chymotrypsin inhibition assay (N-Suc-LLVY-AMC cleavage); format: biochemical; conditions: bovine
T1 construct: purchased Sigma-Aldrich C3142; host or cells: bovine pancreas
Description: Analytical data are in accor dance with those reported in the literature12.
(+)-Pinanediol (1- am inobenzyl)boronate h ydrochloride 9g
A previousl y reported m ethod was used for the first step of the s ynthesis3.
Phenylm agnesium brom ide 0.7 M (3.1 m L, 2.15 mm ol, 1.2 equiv) was added dropwise at −78°C to a solution of (+)-pinanediol dichloromethyl boronate 24 (470 m g, 1.79 mmol, 1.0 equiv) in anh ydrous dieth yl ether (10 m L). Af ter 15 m in ZnCl2 1 M (1.8 m L, 1.8 mm ol, 1.0 equiv) was slowl y added at this t em perature. T he reaction m ixture was allowed to warm up to room tem perature over 2 hours. The inorganic precipitate was filtered off and the solvents were rem oved in vacuo. The residue was dissolved in pentane, washed with water and dried over Na2SO4. Rem oval of the solvent gives a product which was forwarded to the next step without purification. […]
Assays f or inh ib ition of tr yp s in activity (T PC K trea ted, f rom bovine pa ncreas; Sigm a-Aldrich T 1426) were based on cleavage of the fluorogenic peptide substrate Boc -QAR-AMC (Sigma- Aldrich B4153). which contains the fluorescent 7- am ino-4-m ethyl c oum arin (AMC) group. […] Cleavage of this bond results in release of AMC and i ncreased fluorescence. […]

Q: Which “ring production after washout” value (P. falciparum schizonts) does the source give for `CC(=O)NC(C(=O)NC(C(=O)NCC(=O)NC(C)B(O)O)C(C)C)C1CCCC1` (stereo not shown) [3j] here?
A: No rings were produced

Q: What about the “elastase IC50 relative to that for PfSUB1” value (elastase) of the same molecule?
A: > 100 fold

Q: What about the egress following washout [1] of the same molecule?
A: no egress occurred over the course of 30 min

Q: What about the IC50 (α-chymotrypsin) of the same molecule?
A: > 200 µM
